Measured values as given in publication PMC5781229 (Analytical biochemistry, 2017).

Target: TET2 (Homo sapiens, UniProt Q6N021, DEL1481-1843)

Km: 15.7 µM
Structure (SMILES): O=C(O)CCC(=O)C(=O)O [compound 1, 2KG]
